Results reported in publication PMC11597854 (2024).

Legend:
[1] = system: hTel23 (DNA, G4) TAGGGTTAGGGTTAGGGTTAGGG; test: CD melting; details: 80 mM KCl, 10 mM KH2PO4 (90 mM K+); pH 7.3; 5 equiv. complex (25 µM), 5 µM DNA, 0.5 °C/min
[2] = system: hTel23 (DNA, G4) TAGGGTTAGGGTTAGGGTTAGGG; test: CD titration, Hill fit; details: 80 mM KCl, 10 mM KH2PO4 (90 mM K+), pH 7.3, 5 °C, up to 0.9% DMSO, apparent

Row | Structure (SMILES) | ΔTM [1] | Kd ([2]; 290 nm (hybrid form)) [µM] | Kd ([2]; 272 nm (parallel form), 290 nm (hybrid) gives 17) [µM]
1 | CC(=O)NCCN1[C]N2C=CC=CC2=C1.CC(=O)NCCN1[C]N2C=CC=CC2=C1.[Au+] | −13 °C | 9.7 | 
2 | [Au+].[C]1C2=C(CCCC2)N2CCCCN12.[C]1C2=C(CCCC2)N2CCCCN12 | −4 °C |  | 5.1
3 | CCN1[C]N(CC)C(c2ccc(OC)cc2)=C1c1ccc(OC)cc1.CCN1[C]N(CC)C(c2ccc(OC)cc2)=C1c1ccc(OC)cc1.[Au+] | −2 °C |  | 
4 | [Au+].[C]1N(Cc2ccccn2)C=CN1c1c2ccccc2nc2ccccc12.[C]1N(Cc2ccccn2)C=CN1c1c2ccccc2nc2ccccc12 | +1 °C |  | 
